{"source": "patent US20070270358A1", "about": "“Cosmetic and/or Pharmaceutical Composition for the Treatment of the Rosacea” (priority 2004, published 2007)", "key": {"human keratinocytes [1]": {"test_system": "human keratinocytes", "format": "cell-based", "description": "A second test, through the determination of the vitality of the cells using the MTT method, enables evaluation of the total damage suffered by the cells (in the absence of and following oxidative stress) and the protective effect produced by the substance tested in different concentrations.\nBefore and following exposure to UV rays, an MTT test is carried out to evaluate the toxic impact on the cell energetic system (mitochondrions) compared with cells not protected from oxidative stress a cells not exposed to stress. The MTT test is simple, accurate and gives reproducible results. This method, originally developed by Mossman […], is based on a yellow substance in solution. The mitochondrial dehydrogenize of live cells is able to cut the tetrazolium ring causing the formation of insoluble purple coloured salts. The crystals can de dissolved in acidified isopropanol and the purple solution formed can be spectrophotometrically dosed. An increase/decrease in number of the live cells can be evaluated as corresponding to the increase or decrease in the optical absorption due to formazano salts, giving a quantification of the global cytotoxic event.\n(§1) • Control negative (C−): cells not treated • Control positive (C+): cells exposed to UV without protective treatment • Samples: • cells exposed to UV in the presence of protective substances: • Vitamin C 0.1 mg/ml (anti-oxidant of comparison) • SOL.—Solution 20% dimethyl sulfone\nCellular vitality as evaluated in the absence of oxidative stress (UV−) and after 5 minutes of exposure to […]\nAbsorption values (O.D) at 540 nm (in proportion to the number of cells). Evaluation of cellular vitality in the absence of oxidative stress"}, "human keratinocytes [2]": {"test_system": "human keratinocytes", "assay": "Dosage of ROS (DCF fluorescence) after UV-induced oxidative stress", "format": "cell-based", "conditions": "for anti-radical protection percentage / fluorescence, directly proportional to the quantity of ROS (average value): after 5 minutes exposure to UV", "description": "The substance to be tested was diluted in a salt solution to the final concentrations required. The dichlorofluorescein acetate (DCF) was diluted apart in a special buffer. The DCF reacts with the free radicals if present giving rise to a fluorescent derivative, and the fluorometry reading gives a quantity related to the presence of this substance in the cells analyzed. A sufficient number of cells (30,000 cells/well) is sown in the wells of a […]. After a pre-incubation period overnight with the different sample concentrations, the culture medium is sucked out of the wells and replaced with 500 μl of DCF solution. The plates are placed in a CO2 thermo regulator at 37° C. to incubate for 15 minutes. At this point the DCF solution is discarded. After a 5 minute period of exposure to UV rays, the oxidative stress is interrupted, and the fluorometry reading taken. The lamp used in the experiments reproduces the solar spectrum with a constant UVA emission field of between 315 and 400 nm. The emission of UVB is appropriately shielded to avoid direct cytotoxic damage to the cell cultures. The plate containing the cells is irradiated at room temperature with an intensity of 1.7 mW/cm^2 of UVA […].\nReading of the fluorometry is carried out at the excitation wave length of 485 nm and emission of 530 nm directly on the plates (Toxicol. Letters 1997-93: 47-54).\nas §1\nThe results are given in terms of fluorescence, that are directly proportional to the quantity of ROS\nThe anti-radical protection percentage offered by the substance is calculated using the following formula: […]"}}, "note": "Like-named read-outs stand apart in the source and are kept apart here.", "data": [{"compound": "CS(C)(=O)=O", "note": "[MSM SOL. 20%, dimethyl sulfone]", "values": [{"measurement": "cellular vitality, absorption value at 540 nm (average value)", "setting": "human keratinocytes [1]; 0.003 mg/ml, after 5 minutes exposure to UV (UV+)", "result": 3.020, "unit": "O.D"}, {"measurement": "cellular vitality, absorption value at 540 nm (average value)", "setting": "human keratinocytes [1]; 0.01 mg/ml, after 5 minutes exposure to UV (UV+)", "result": 2.977, "unit": "O.D"}, {"measurement": "cellular vitality, absorption value at 540 nm (average value)", "setting": "human keratinocytes [1]; 0.03 mg/ml, after 5 minutes exposure to UV (UV+)", "result": 2.940, "unit": "O.D"}, {"measurement": "cellular vitality, absorption value at 540 nm (average value)", "setting": "human keratinocytes [1]; 0.09 mg/ml, after 5 minutes exposure to UV (UV+)", "result": 2.987, "unit": "O.D"}, {"measurement": "cellular vitality, absorption value at 540 nm (average value)", "setting": "human keratinocytes [1]; 0.28 mg/ml, after 5 minutes exposure to UV (UV+)", "result": 2.832, "unit": "O.D"}, {"measurement": "cellular vitality, absorption value at 540 nm (average value)", "setting": "human keratinocytes [1]; 0.83 mg/ml, after 5 minutes exposure to UV (UV+)", "result": 2.838, "unit": "O.D"}, {"measurement": "cellular vitality, absorption value at 540 nm (average value)", "setting": "human keratinocytes [1]; 2.5 mg/ml, after 5 minutes exposure to UV (UV+)", "result": 2.777, "unit": "O.D"}, {"measurement": "cytoprotective activity: cellular vitality following exposure to UV radiation", "setting": "human keratinocytes [1]; concentration between 0.003 and 2.5 mg/ml, versus non-treated keratinocytes", "result": "cellular vitality of treated Keratinocytes is greater compared with non-treated Keratinocytes"}, {"measurement": "anti-radical protection percentage", "setting": "human keratinocytes [2]; 0.003 mg/ml", "result": 41.2, "unit": "%"}, {"measurement": "fluorescence, directly proportional to the quantity of ROS (average value)", "setting": "human keratinocytes [2]; 0.003 mg/ml", "result": 17820}, {"measurement": "anti-radical protection percentage", "setting": "human keratinocytes [2]; 0.01 mg/ml", "result": 37.5, "unit": "%"}, {"measurement": "fluorescence, directly proportional to the quantity of ROS (average value)", "setting": "human keratinocytes [2]; 0.01 mg/ml", "result": 18887}, {"measurement": "anti-radical protection percentage", "setting": "human keratinocytes [2]; 0.03 mg/ml", "result": 34.8, "unit": "%"}, {"measurement": "fluorescence, directly proportional to the quantity of ROS (average value)", "setting": "human keratinocytes [2]; 0.03 mg/ml", "result": 19686}, {"measurement": "anti-radical protection percentage", "setting": "human keratinocytes [2]; 0.09 mg/ml", "result": 43.7, "unit": "%"}, {"measurement": "fluorescence, directly proportional to the quantity of ROS (average value)", "setting": "human keratinocytes [2]; 0.09 mg/ml", "result": 17117}, {"measurement": "anti-radical protection percentage", "setting": "human keratinocytes [2]; 0.28 mg/ml", "result": 38.3, "unit": "%"}, {"measurement": "fluorescence, directly proportional to the quantity of ROS (average value)", "setting": "human keratinocytes [2]; 0.28 mg/ml", "result": 18675}, {"measurement": "anti-radical protection percentage", "setting": "human keratinocytes [2]; 0.83 mg/ml", "result": 44.6, "unit": "%"}, {"measurement": "fluorescence, directly proportional to the quantity of ROS (average value)", "setting": "human keratinocytes [2]; 0.83 mg/ml", "result": 16848}, {"measurement": "anti-radical protection percentage", "setting": "human keratinocytes [2]; 2.5 mg/ml", "result": 41.4, "unit": "%"}, {"measurement": "fluorescence, directly proportional to the quantity of ROS (average value)", "setting": "human keratinocytes [2]; 2.5 mg/ml", "result": 17782}, {"measurement": "antioxidant activity: presence of ROS in keratinocyte cultures subjected to oxidative stress", "setting": "human keratinocytes [2]; concentration between 0.003 and 2.5 mg/ml", "result": "significantly reduces the presence of reactive oxygen species (ROS)"}]}, {"compound": "O=C1O[C@H]([C@@H](O)CO)C(O)=C1O", "note": "[VIT C, Vitamin C, reference compound]", "values": [{"measurement": "cellular vitality, absorption value at 540 nm (average value)", "setting": "human keratinocytes [1]; 0.1 mg/ml, after 5 minutes exposure to UV (UV+)", "result": 2.904, "unit": "O.D"}, {"measurement": "cellular vitality, absorption value at 540 nm (average value)", "setting": "human keratinocytes [1]; human, 0.1 mg/ml", "result": 2.977, "unit": "O.D"}, {"measurement": "fluorescence, directly proportional to the quantity of ROS (average value)", "setting": "human keratinocytes [2]; 0.1 mg/ml", "result": 20837}]}]}
